Literature values as cited in patent US20120328543A1, “USE OF A CATIONIC, ADVANTAGEOUSLY AMPHOTERIC, SURFACTANT FOR THE PREPARATION OF AN ANTIFUNGAL SOLUTION THAT CAN BE APPLIED TO THE NAIL” (priority 2009, published 2012).

Experiments:
[1] = not given; remark: listed apart in the source

SMILES: CN(C/C=C/C#CC(C)(C)C)Cc1cccc2ccccc12.Cl [Terbinafine HCl, terbinafine hydrochloride]
- pKa: 7.10
- solubility in water [1]: 5.32 µg/mL
